In publication PMC4965473 (Frontiers in Physiology, 2016):
Counter-ions that a name gives are not always drawn.

How the values were obtained:
wt M2TMD21−49 = tested on: wt M2TMD21−49; design: species or system influenza A
[1] = tested on: M2 transmembrane domain (M2TMD); conditions: cited from earlier work

Structure (SMILES): NC12CC3CC(CC(C3)C1)C2 [amantadine, amantadine hydrochloride]
- effect of longer incubation with amantadine on DEER data (wt M2TMD21−49): did not produce any additional effect on the DEER data
- effect of amantadine on DEER distances (wt M2TMD21−49; pH 5.5): do not change upon the addition of 2 mM amantadine
- effect of amantadine on DEER signal / modulation depth (wt M2TMD21−49; pH 5.5): almost negligible
- binding affinity of amantadine versus pH [1]: Increased binding affinity of amantadine at neutral or basic pH, compared to acidic pH
- effect of amantadine on M2TMD tetramer [1]: stabilizing effect of amantadine on M2TMD tetramer
